“Also recorded” adds a separate entry of the source.
How the values were obtained:
PLCβ = PLCβ position in cell membrane (PLCβ-RFP flies); assay type: in vivo, Drosophila; conditions: uracil 20 nM for 2 hours
Method: Genetically modified Drosophila containing PLCβ-RFP (UAS-PLCβ-RFP; Da-GAL4) were used to monitor activated PLCβ generation which is targeted in the membrane as disclosed in the previous research (Ha et al., Nat Immunol 10, pp. 949-957, 2009). A 5% sucrose solution containing 20 nM of uracil was ingested by Drosophila (5 to 6 days old) for 2 hours.

DUOX2 = assay: ROS measurement in human epithelial cells (Caco-2, NHNE; DCF-DA); assay type: cell-based; conditions: uracil 50 nM, 15 minutes; Caco-2 and normal human nasal epithelial cells
Excerpt: Human middle turbinated bone specimens were obtained from healthy volunteers after the research proposal was approved by Yonsei University College of Medicine Audit Committee. The culture system used for normal human nasal epithelial (NHNE) cells is disclosed in the previous research (Yoon et al., Am J Respir Cell Mol Biol 16, pp. 724-731, 1997; Yoon et al., Ann Otol Rhinol Laryngol 109, pp. 594-601, 2000). Briefly speaking, two passages of NHNE cells (1×10^5 cells/culture) were inoculated into a Transwell-transparent culturing insert characterized by 24.5 mm and 0.45 μm pore sizes (Costar Co., Corning, N.Y., USA) containing 0.5 mL of culturing media. The cells were cultured in a 1:1 mixture containing basic epithelium growth media including all additives disclosed in the previous research (Yoon et al., Ann Otol Rhinol Laryngol 109, pp. 594-601, 2000) and Dulbecco' s Modified Eagle Medium (DMEM). […]
After stimulating NHNE cells or Caco-2 cells, the cells were washed with Hanks' balanced salt solution (HBSS), were placed in Krebs-Ringer solution containing 5 μM of 2′,7′-dichlorofluorescin diacetate (DCF-DA; Molecular Probes, Eugene Oreg., USA), and cultured in darkness for 10 minutes. […] Fluorescence was measured at an excitation wavelength of 488 nm and an emission wavelength ranging from 515 nm to 540 nm. […]

E. carotovora-pyrE::Tn5 = assay: Bacterial persistence in the midgut (CFU); assay type: in vivo, Erwinia carotovora; conditions: coingestion of 1 nM uracil with E. carotovora-pyrE::Tn5; CFU 6 hours after ingestion
Method: To measure gut sustainability of E. carotovora strains (E. carotovora, E. carotovora-pyrE::Tn5, and E. carotovora-pyrE::Tn5-pyrE), a 5% sucrose solution containing approx. 10^10 cells of E. carotovora strains were orally administered to female adult Drosophila (5 to 6 days old) for 2 hours. Midguts were dissected at 6 hours after ingestion. Midguts, posterior guts, and crops of which the surfaces were sterilized were homogenized and diluted accordingly. These were smeared on a Luria-Bertani agar plate, and some of colony-forming units (CFUs) were obtained from each midgut. During the recovery experiment, the coingestion of E. carotovora-pyrE::Tn5 (+uracil) and 1 nM of uracil or the expression of an E. carotovora-pyrE::Tn5 strain, which was genetically recovered by the expression of functional pyrE genes (+pyrE), was utilized.

germ-free Drosophila = assay: Survival duration of germ-free flies on uracil-containing media; assay type: in vivo
Excerpt: Control Drosophila and PLCβ-DUOX pathway-mediated mutated Drosophila (PLCβ^−/− and DUOX-RNAi) were used in the experiment. It is known that PLCβ^−/− and DUOX-RNAi flies have a short life span under conventional rearing conditions but a normal life span under germ-free conditions (Ha et al., Nat Immunol 10, pp. 949-957, 2009). Therefore, to examine the effects of uracil on the survival rate of genetically different Drosophila, germ-free animals were used. Germ-free animals were reared in germ-free media containing 1 nM of uracil. Germ-free animals were moved to a newly sterilized bottle that had germ-free media containing uracil every 4 or 5 days. Drosophila remained germ-free throughout the entire experimental processes.

Question: What does the source list for `O=c1cc[nH]c(=O)[nH]1` [uracil]?
Answer: PLC activation (membrane localization of active PLC) (PLCβ): PLC activation; DUOX-dependent ROS generation in human mucosal epithelial cells (DUOX2): able to activate DUOX-dependent ROS generation; prolonged midgut persistence of URA− pathogens (E. carotovora-pyrE::Tn5): abolished; host lethality / mortality after long-term ingestion of uracil (germ-free Drosophila; germ-free control flies, uracil-containing vs normal food): lethality of control flies in a dose-dependent manner; also recorded: statistically significant difference in mortality; uracil-induced host pathology in PLCβ−/− or DUOX-RNAi flies (germ-free Drosophila; in vivo): completely absent
